Laboratory results from patent US20060069132A1, “Azolecarboxamide herbicides” (priority 2004, published 2006).

Tests used:
wild oat = experiment: Test B postemergence herbicide test; assay type: in vivo, Avena fatua; conditions: postemergence, visual rating, scale 0 (no effect) to 100 (complete control)
Outline: (§1)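 After treating 2-leaf paddy plants or 2–18 cm postemergence plants (1 to 4 leaves) with formulated chemical, researchers kept them in a greenhouse for 13–15 days. Effects were judged visually versus controls: 0 indicates none, 100 total control.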

blackgrass = experiment: Test B postemergence herbicide test; assay type: in vivo, Alopecurus myosuroides; conditions: postemergence, visual rating, scale 0 (no effect) to 100 (complete control)
Outline: as §1

large crabgrass [1] = experiment: Test A pre-/postemergence herbicide test; assay type: in vivo, Digitaria sanguinalis
Outline: (§2)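 Plants are held in greenhouse about ten days after treatment, then compared with untreated controls and scored 0 (no effect) to 100 (complete control). Preemergence dosing is a directed soil spray on sown sandy loam; postemergence dosing is spray to runoff at 2–10 cm height.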

barnyardgrass [2] = experiment: Test A pre-/postemergence herbicide test; assay type: in vivo, Echinochloa crus-galli
Outline: as §2

pigweed = experiment: Test B pre-/postemergence herbicide test; assay type: in vivo, Amaranthus retroflexus; conditions: for Plant response rating, Pigweed: preemergence; for Pigweed plant response rating: postemergence, visual rating, scale 0 (no effect) to 100 (complete control)
Outline: (§3)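 Test chemicals in a non-phytotoxic solvent mixture with surfactant were applied preemergence to seeded species and postemergence to plants 2-18 cm tall (1- to 4-leaf stage); rice and barnyardgrass were also tested in a flooded paddy at the 2-leaf stage. Visual rating versus controls after 13-15 days in greenhouse, scale 0 (no effect) to 100 (complete control).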

rice [3] = experiment: Test B pre-/postemergence herbicide test; assay type: in vivo, Oryza sativa; conditions: preemergence
Outline: as §3

[4] = tested on: small flower umbrella sedge; experiment: Test B flooded paddy test; assay type: in vivo, Cyperus difformis; conditions: 1000 g ai/ha, visual rating, scale 0 to 100 (0 no effect, 100 complete control), 13 to 15 days
Outline: as §1

velvetleaf [5] = experiment: Test A pre-/postemergence herbicide test; assay type: in vivo, Abutilon theophrasti
Outline: as §2

giant foxtail [6] = experiment: Test A pre-/postemergence herbicide test; assay type: in vivo, Setaria faberi
Outline: as §2

ducksalad = experiment: Test B flooded paddy test; assay type: in vivo, Heteranthera limosa; conditions: 1000 g ai/ha, visual rating, scale 0 to 100 (0 no effect, 100 complete control), 13 to 15 days
Outline: as §1

giant foxtail [7] = experiment: Test B pre-/postemergence herbicide test; assay type: in vivo, Setaria faberi; conditions: for Plant response rating, Foxtail, Giant: preemergence; for Foxtail, Giant plant response rating: postemergence, visual rating, scale 0 (no effect) to 100 (complete control)
Outline: as §3

morningglory [8] = experiment: Test A pre-/postemergence herbicide test; assay type: in vivo, Ipomoea spp.
Outline: as §2

cocklebur = experiment: Test B pre-/postemergence herbicide test; assay type: in vivo, Xanthium strumarium; conditions: for Plant response rating, Cocklebur: preemergence; for Cocklebur plant response rating: postemergence, visual rating, scale 0 (no effect) to 100 (complete control)
Outline: (§4)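 Flooded paddy rice and barnyardgrass were treated at the 2-leaf stage; upland plantings received compound either on sown seed or on 1- to 4-leaf seedlings. All were kept 13–15 days in a greenhouse and scored visually, 0–100, relative to untreated plants.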

barnyardgrass [9] = experiment: Test B pre-/postemergence herbicide test; assay type: in vivo, Echinochloa crus-galli; conditions: for Plant response rating, Barnyardgrass: preemergence; for Barnyardgrass plant response rating: postemergence, visual rating, scale 0 (no effect) to 100 (complete control)
Outline: as §4

corn = experiment: Test B pre-/postemergence herbicide test; assay type: in vivo, Zea mays; conditions: for Plant response rating, Corn: preemergence; for Corn plant response rating: postemergence, visual rating, scale 0 (no effect) to 100 (complete control)
Outline: as §3

Surinam grass = experiment: Test B pre-/postemergence herbicide test; assay type: in vivo, Urochloa decumbens; conditions: for Plant response rating, Surinam Grass: preemergence; for Surinam Grass plant response rating: postemergence, visual rating, scale 0 (no effect) to 100 (complete control)
Outline: as §3

wheat = experiment: Test B postemergence herbicide test; assay type: in vivo, Triticum aestivum; parameters: key to Wheat plant response rating: 0 = no effect, 100 = complete control; conditions: postemergence, 500 g ai/ha; visual rating, scale 0 (no effect) to 100 (complete control)
Outline: as §1

velvetleaf [10] = experiment: Test B pre-/postemergence herbicide test; assay type: in vivo, Abutilon theophrasti; conditions: for Plant response rating, Velvetleaf: preemergence; for Velvetleaf plant response rating: postemergence, visual rating, scale 0 (no effect) to 100 (complete control)
Outline: as §3

barnyardgrass [11] = experiment: Test B flooded paddy test; assay type: in vivo, Echinochloa crus-galli; conditions: 1000 g ai/ha, visual rating, scale 0 to 100 (0 no effect, 100 complete control), 13 to 15 days
Outline: as §1

lambsquarters = experiment: Test B pre-/postemergence herbicide test; assay type: in vivo, Chenopodium album; conditions: for Plant response rating, Lambsquarters: preemergence; for Lambsquarters plant response rating: postemergence, visual rating, scale 0 (no effect) to 100 (complete control)
Outline: as §3

redroot pigweed = experiment: Test A pre-/postemergence herbicide test; assay type: in vivo, Amaranthus retroflexus
Outline: as §2

rice [12] = experiment: Test B flooded paddy test; assay type: in vivo, Oryza sativa; conditions: 1000 g ai/ha, visual rating, scale 0 to 100 (0 no effect, 100 complete control), 13 to 15 days
Outline: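 Paddy species grown to the 2-leaf stage under flooding; blackgrass sprayed postemergence at 2–18 cm (1- to 4-leaf stage). Plants kept in a greenhouse for 13 to 15 days, then visually rated against controls on 0 (no effect) to 100 (complete control).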

morningglory [13] = experiment: Test B pre-/postemergence herbicide test; assay type: in vivo, Ipomoea coccinea; conditions: for Plant response rating, Morningglory: preemergence; for Morningglory plant response rating: postemergence, visual rating, scale 0 (no effect) to 100 (complete control)
Outline: as §4

large crabgrass [14] = experiment: Test B pre-/postemergence herbicide test; assay type: in vivo, Digitaria sanguinalis; conditions: for Plant response rating, Crabgrass, Large: preemergence; for Crabgrass, Large plant response rating: postemergence, visual rating, scale 0 (no effect) to 100 (complete control)
Outline: as §3

[15] = Postemergence, 500 g ai/ha, 0 to 100 scale, 0 no effect, 100 complete control
[16] = Postemergence, 2000 g ai/ha, 0 to 100 scale, 0 no effect, 100 complete control
[17] = Preemergence, 500 g ai/ha, visual rating, 0 to 100 scale (0 no effect, 100 complete control)
[18] = Preemergence, 2000 g ai/ha, visual rating, 0 to 100 scale (0 no effect, 100 complete control)
[19] = 500 g ai/ha, visual rating 0-100, 0 no effect, 100 complete control
[20] = 125 g ai/ha, 0 to 100 scale, 0 is no effect, 100 is complete control
[21] = preemergence, 500 g ai/ha, visual injury, 0 to 100 scale (0 no effect, 100 complete control)

CCn1nc(C(C)(C)C)cc1C(=O)Nc1nccc(OC)n1 [Compound 165]
Oat, Wild plant response rating (wild oat; 125 g ai/ha): 0 | Oat, Wild plant response rating (wild oat; 500 g ai/ha): 0 | Blackgrass plant response rating (blackgrass; 125 g ai/ha): 0 | Blackgrass plant response rating (blackgrass; 500 g ai/ha): 0 | Crabgrass, Large plant response rating (large crabgrass [1]; [15]): 0 | Plant response rating, Crabgrass, Large (large crabgrass [1]; [16]): 0 | Crabgrass, Large plant response rating (large crabgrass [1]; [17]): 0 | Crabgrass, Large plant response rating (large crabgrass [1]; [18]): 0 | Barnyardgrass plant response rating (barnyardgrass [2]; [15]): 0 | Plant response rating, Barnyardgrass (barnyardgrass [2]; [16]): 0 | Barnyardgrass plant response rating (barnyardgrass [2]; [17]): 0 | Barnyardgrass plant response rating (barnyardgrass [2]; [18]): 0 | Plant response rating, Pigweed (pigweed; [19]): 0 | Pigweed plant response rating (pigweed; 125 g ai/ha): 0 | Pigweed plant response rating (pigweed; 500 g ai/ha): 0 | Plant response rating, Pigweed (pigweed; [20]): 0 | Plant response rating, Rice (rice [3]; [19]): 0 | Plant response rating, Rice (rice [3]; [20]): 0 | Sedge, Umbrella plant response rating [4]: 0 | Velvetleaf plant response rating (velvetleaf [5]; [15]): 10 | Plant response rating, Velvetleaf (velvetleaf [5]; [16]): 20 | Velvetleaf plant response rating (velvetleaf [5]; [18]): 5 | Velvetleaf plant response rating (velvetleaf [5]; [21]): 0 | Foxtail, Giant plant response rating (giant foxtail [6]; [15]): 0 | Plant response rating, Foxtail, Giant (giant foxtail [6]; [16]): 0 | Foxtail, Giant plant response rating (giant foxtail [6]; [17]): 0 | Foxtail, Giant plant response rating (giant foxtail [6]; [18]): 0 | Ducksalad plant response rating (ducksalad): 0 | Plant response rating, Foxtail, Giant (giant foxtail [7]; [19]): 0 | Foxtail, Giant plant response rating (giant foxtail [7]; 125 g ai/ha): 0 | Foxtail, Giant plant response rating (giant foxtail [7]; 500 g ai/ha): 0 | Plant response rating, Foxtail, Giant (giant foxtail [7]; [20]): 0 | Morningglory plant response rating (morningglory [8]; [15]): 5 | Plant response rating, Morningglory (morningglory [8]; [16]): 5 | Morningglory plant response rating (morningglory [8]; [17]): 0 | Morningglory plant response rating (morningglory [8]; [18]): 0 | Plant response rating, Cocklebur (cocklebur; [19]): 0 | Cocklebur plant response rating (cocklebur; 125 g ai/ha): 0 | Cocklebur plant response rating (cocklebur; 500 g ai/ha): 0 | Plant response rating, Cocklebur (cocklebur; [20]): 0 | Plant response rating, Barnyardgrass (barnyardgrass [9]; [19]): 0 | Barnyardgrass plant response rating (barnyardgrass [9]; 125 g ai/ha): 0 | Barnyardgrass plant response rating (barnyardgrass [9]; 500 g ai/ha): 0 | Plant response rating, Barnyardgrass (barnyardgrass [9]; [20]): 0 | Plant response rating, Corn (corn; [19]): 0 | Corn plant response rating (corn; 125 g ai/ha): 0 | Corn plant response rating (corn; 500 g ai/ha): 0 | Plant response rating, Corn (corn; [20]): 0 | Plant response rating, Surinam Grass (Surinam grass; [19]): 0 | Surinam Grass plant response rating (Surinam grass; 125 g ai/ha): 0 | Surinam Grass plant response rating (Surinam grass; 500 g ai/ha): 0 | Plant response rating, Surinam Grass (Surinam grass; [20]): 0 | Wheat plant response rating (wheat): 0 | Plant response rating, Velvetleaf (velvetleaf [10]; [19]): 0 | Velvetleaf plant response rating (velvetleaf [10]; 125 g ai/ha): 0 | Velvetleaf plant response rating (velvetleaf [10]; 500 g ai/ha): 0 | Plant response rating, Velvetleaf (velvetleaf [10]; [20]): 0 | Barnyardgrass plant response rating (barnyardgrass [11]): 0 | Plant response rating, Lambsquarters (lambsquarters; [19]): 0 | Lambsquarters plant response rating (lambsquarters; 125 g ai/ha): 0 | Lambsquarters plant response rating (lambsquarters; 500 g ai/ha): 0 | Plant response rating, Lambsquarters (lambsquarters; [20]): 0 | Pigweed plant response rating (redroot pigweed; [15]): 0 | Plant response rating, Pigweed (redroot pigweed; [16]): 5 | Pigweed plant response rating (redroot pigweed; [18]): 20 | Pigweed plant response rating (redroot pigweed; [21]): 0 | Rice plant response rating (rice [12]): 0 | Plant response rating, Morningglory (morningglory [13]; [19]): 0 | Morningglory plant response rating (morningglory [13]; 125 g ai/ha): 0 | Morningglory plant response rating (morningglory [13]; 500 g ai/ha): 0 | Plant response rating, Morningglory (morningglory [13]; [20]): 0 | Plant response rating, Crabgrass, Large (large crabgrass [14]; [19]): 0 | Crabgrass, Large plant response rating (large crabgrass [14]; 125 g ai/ha): 0 | Crabgrass, Large plant response rating (large crabgrass [14]; 500 g ai/ha): 0 | Plant response rating, Crabgrass, Large (large crabgrass [14]; [20]): 0
